IC50 data for 19 compounds are collected here from ChEMBL document CHEMBL1130398 (J Med Chem, 1997).

The target in assay [1] is T1, Acetylcholinesterase (Rattus norvegicus, UniProt P37136).
T1 sequence (P37136 whole entry): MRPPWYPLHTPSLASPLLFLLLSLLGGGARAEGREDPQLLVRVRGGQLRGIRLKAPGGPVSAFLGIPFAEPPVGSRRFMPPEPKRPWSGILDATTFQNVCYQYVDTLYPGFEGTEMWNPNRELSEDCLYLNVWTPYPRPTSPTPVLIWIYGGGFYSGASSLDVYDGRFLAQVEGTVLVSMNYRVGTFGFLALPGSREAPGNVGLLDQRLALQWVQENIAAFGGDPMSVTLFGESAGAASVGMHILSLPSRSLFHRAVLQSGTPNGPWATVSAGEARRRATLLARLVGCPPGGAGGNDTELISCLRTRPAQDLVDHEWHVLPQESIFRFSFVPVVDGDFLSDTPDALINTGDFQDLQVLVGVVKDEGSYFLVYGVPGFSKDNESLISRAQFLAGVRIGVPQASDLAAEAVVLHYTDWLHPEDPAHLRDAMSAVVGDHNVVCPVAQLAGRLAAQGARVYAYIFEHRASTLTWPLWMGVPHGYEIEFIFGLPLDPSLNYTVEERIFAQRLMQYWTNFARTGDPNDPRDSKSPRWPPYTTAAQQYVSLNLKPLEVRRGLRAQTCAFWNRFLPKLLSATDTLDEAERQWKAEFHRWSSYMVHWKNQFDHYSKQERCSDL
Description: In vitro inhibition of acetylcholinesterase, isolated from rat brain.

Assay [2] concerns the target T2, Cholinesterase (Homo sapiens, UniProt P06276).
Description: In vitro inhibition of Butyrylcholinesterase from human plasma.
Assay [3] has as its target Norepinephrine transporter (Rattus norvegicus, UniProt Q9WTR4).
Description: Inhibition of neuronal uptake of Noradrenaline in rat brain homogenate
For assay [4], the target named is Sodium-dependent serotonin transporter (Rattus norvegicus, UniProt P31652).
Chain of Sodium-dependent serotonin transporter (P31652 whole entry): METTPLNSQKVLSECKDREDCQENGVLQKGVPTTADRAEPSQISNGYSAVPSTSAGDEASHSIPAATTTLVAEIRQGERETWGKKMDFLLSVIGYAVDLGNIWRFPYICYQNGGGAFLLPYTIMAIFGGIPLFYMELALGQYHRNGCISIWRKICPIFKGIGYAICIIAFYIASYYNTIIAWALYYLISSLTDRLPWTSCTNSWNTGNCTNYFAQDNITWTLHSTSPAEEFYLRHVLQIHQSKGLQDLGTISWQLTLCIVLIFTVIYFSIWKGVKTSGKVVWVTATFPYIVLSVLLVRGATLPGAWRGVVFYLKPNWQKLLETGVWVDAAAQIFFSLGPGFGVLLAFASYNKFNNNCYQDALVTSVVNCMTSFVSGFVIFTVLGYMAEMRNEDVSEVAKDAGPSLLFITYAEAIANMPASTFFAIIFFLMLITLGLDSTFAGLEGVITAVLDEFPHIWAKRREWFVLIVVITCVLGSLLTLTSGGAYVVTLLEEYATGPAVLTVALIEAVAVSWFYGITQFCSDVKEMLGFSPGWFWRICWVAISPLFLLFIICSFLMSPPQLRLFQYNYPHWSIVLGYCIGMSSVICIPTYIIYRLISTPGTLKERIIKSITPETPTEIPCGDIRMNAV
Assay [5] has as its target T2, Cholinesterase. In words: Activity against Butyrylcholinesterase (BChE) from human plasma at 100 uM; no block. Type of assay: cell-free.
The target of assay [6] is T1, Acetylcholinesterase. Briefly: Inhibitory activity against acetylcholinesterase, isolated from rat brain at 100 uM; No block.
Assay [7] deals with T2, Cholinesterase. In words: Activity against Butyrylcholinesterase (BChE) from human plasma at 100 uM; No block. The class given is cell-free.

One may read the IC50 as the concentration that inhibits the measured activity by half. Read a low IC50 as higher potency.

Chain of Norepinephrine transporter (Q9WTR4 whole entry): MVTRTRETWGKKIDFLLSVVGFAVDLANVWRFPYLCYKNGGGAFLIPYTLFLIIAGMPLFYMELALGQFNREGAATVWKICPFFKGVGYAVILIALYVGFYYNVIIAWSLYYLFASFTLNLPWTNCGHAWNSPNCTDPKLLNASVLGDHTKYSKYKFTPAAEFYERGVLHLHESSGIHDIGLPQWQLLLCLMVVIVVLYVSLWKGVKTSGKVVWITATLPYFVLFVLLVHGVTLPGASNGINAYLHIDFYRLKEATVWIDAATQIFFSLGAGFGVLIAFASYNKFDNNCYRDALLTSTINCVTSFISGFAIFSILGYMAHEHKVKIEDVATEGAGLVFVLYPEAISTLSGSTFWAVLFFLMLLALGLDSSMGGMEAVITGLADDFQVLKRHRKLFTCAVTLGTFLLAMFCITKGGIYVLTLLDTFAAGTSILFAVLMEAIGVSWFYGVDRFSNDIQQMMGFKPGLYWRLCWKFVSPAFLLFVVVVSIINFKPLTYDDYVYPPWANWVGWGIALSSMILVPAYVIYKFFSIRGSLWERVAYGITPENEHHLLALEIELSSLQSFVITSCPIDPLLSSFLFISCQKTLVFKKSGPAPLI
T2 sequence (P06276 whole entry): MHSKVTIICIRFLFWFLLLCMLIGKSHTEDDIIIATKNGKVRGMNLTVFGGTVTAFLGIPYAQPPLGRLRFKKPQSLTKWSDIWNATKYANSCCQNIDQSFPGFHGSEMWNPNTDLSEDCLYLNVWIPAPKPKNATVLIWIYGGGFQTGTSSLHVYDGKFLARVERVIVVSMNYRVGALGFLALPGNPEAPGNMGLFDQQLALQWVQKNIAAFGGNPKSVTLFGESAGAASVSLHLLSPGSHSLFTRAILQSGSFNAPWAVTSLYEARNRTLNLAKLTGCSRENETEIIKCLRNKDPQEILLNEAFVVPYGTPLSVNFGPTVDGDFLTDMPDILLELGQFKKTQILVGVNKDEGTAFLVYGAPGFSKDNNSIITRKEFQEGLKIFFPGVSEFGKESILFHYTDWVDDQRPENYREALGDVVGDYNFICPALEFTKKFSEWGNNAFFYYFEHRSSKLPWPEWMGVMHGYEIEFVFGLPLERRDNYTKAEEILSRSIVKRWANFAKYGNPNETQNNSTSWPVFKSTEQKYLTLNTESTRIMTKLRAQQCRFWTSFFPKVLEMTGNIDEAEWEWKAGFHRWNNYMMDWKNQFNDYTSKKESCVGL

As for `CCCCC1(O)c2nc3ccccc3c(N)c2CC1C` (centres undefined), the IC50 at Acetylcholinesterase [1] came to 91 µM; against Cholinesterase [2], 81 µM; in assay [3], 12 µM; in assay [4], 7.1 µM.

`Nc1c2c(nc3ccccc13)-c1ccccc1CCC2`: the IC50 against Acetylcholinesterase [1] stood at 166 µM; at Cholinesterase [2], 36 µM; in assay [3], 1.8 µM; in assay [4], 4.7 µM.

Regarding `CC1=C(C)c2nc3ccccc3c(N)c2C1`, the IC50 against Acetylcholinesterase [1] was 3.5 µM; on Cholinesterase [2], 5.9 µM; in assay [4] it was 5.1 µM.

For `Nc1c2c(nc3ccccc13)CCCCC2`, the IC50 at Acetylcholinesterase [1] was 0.039 µM; against Cholinesterase [2], 0.014 µM; in assay [3], 6.9 µM; in assay [4], 3.6 µM.

In the case of `Nc1c2c(nc3ccccc13)-c1ccccc1NCCC2`, the IC50 at Acetylcholinesterase [1] amounted to 391 µM; on Cholinesterase [2], 6.7 µM; in assay [3] it was 2.5 µM; in assay [4] it was 6.9 µM.

Take `Nc1c2c(nc3ccccc13)-c1ccccc1NCC2`: the IC50 on Acetylcholinesterase [1] stood at 69.4 µM; against Cholinesterase [2], 18.9 µM; in assay [3] it was 3 µM; in assay [4] it was 4.2 µM.

`COc1ccc2c(c1)CCc1c-2nc2ccccc2c1N`: the IC50 entry was “no block” at Cholinesterase [5], 47.5 µM at Acetylcholinesterase [1], 1.4 µM in assay [3] and 5.8 µM in assay [4].

`Nc1c2c(nc3ccccc13)CCCc1ccccc1-2`: the IC50 was found to be 26.4 µM against Cholinesterase [2] and 0.02 µM in assay [4].

In the case of `Nc1c2c(nc3ccccc13)-c1cccc(Cl)c1CC2`, the IC50 against Acetylcholinesterase [1] worked out at 144 µM; at Cholinesterase [2], 10.3 µM; in assay [3], 41 µM; in assay [4], 14.3 µM.

Regarding `Nc1c2ccccc2nc2c1cnc1cc(Cl)ccc12`, the IC50 entry against Acetylcholinesterase [6] is “No block”; against Cholinesterase [7], “No block”; in assay [3] it was 0.2 µM; in assay [4] it was more than 95 µM.

On to `CC1Cc2c(nc3ccccc3c2N)C1(C)O` (centres undefined), for which the results for the IC50 (against Acetylcholinesterase [1]; against Cholinesterase [2]; in assay [4]) were 134 µM, 12.2 µM and 4.4 µM, respectively.

As to `Nc1c2c(nc3ccccc13)-c1ccccc1C2`, the IC50 against Cholinesterase [2] came out at 3.1 µM; in assay [3] it was 2.3 µM; in assay [4] it was 2.2 µM.

For the compound `COc1ccc2c(c1)CCCc1c-2nc2ccccc2c1N`, the IC50 against Cholinesterase [2] was more than 100 µM; in assay [3] it was 3.6 µM; in assay [4], 0.7 µM.

As to `Nc1c2c(nc3ccccc13)-c1ccccc1CC2`, the IC50 at Cholinesterase [2] was 3.3 µM; in assay [3] it was 12.1 µM; in assay [4], 4.6 µM.

Consider `Nc1c2c(nc3ccccc13)CCCCCC2`, for which the IC50 on Cholinesterase [2] is 2.3 µM; in assay [3], 0.8 µM; in assay [4] it was 1.1 µM.

Turning to `Nc1c2c(nc3ccccc13)C1CCC2C1` (centres undefined), the IC50 on Cholinesterase [2] turned out to be 0.041 µM; in assay [3], 6.1 µM; in assay [4], 0.2 µM.

In the case of `CCCCC1=C(C)Cc2c1nc1ccccc1c2N`, the IC50 against Acetylcholinesterase [1] was 25 µM; on Cholinesterase [2], 42 µM; in assay [4] it was 13 µM.

For the compound `Nc1c2c(nc3ccccc13)CCC2`, the figures for the IC50 (against Cholinesterase [2]; in assay [3]; in assay [4]) were 0.052 µM, 0.6 µM and 21 µM, respectively.

Consider `CC12CCC(c3c1nc1ccccc1c3N)C2(C)C` (centres undefined), for which the IC50 at Acetylcholinesterase [1] amounted to 110 µM; at Cholinesterase [2], 88 µM; in assay [4], 13 µM.
